According to US6235751A, “Quinolizine carboxylic acid derivatives” (Korean Research Institute of Chemical Technology, priority 1997, dated 2001):
Converted amounts (≈) assume the structure as drawn. Where two headings read alike, the source gives them in different places.

Legend:
Escherichia coli DC 0 = experiment: Antibacterial activity in vitro (MIC, two-fold agar dilution); type: cell-based; conditions: read-out: Minimal Inhibitory Concentration (MIC)
Excerpt: (§1) Test 1. Antibacterial activity in vitro

Escherichia coli DC 2 = experiment: as above; type: cell-based; conditions: DC2, Muller Hinton agar, 10^7 CFU/ml, 37° C., 18 hours, read-out: Minimal Inhibitory Concentration (MIC)
Excerpt: as §1

Escherichia coli 078 = experiment: as above; conditions: Escherichia coli, 078, 18 h, read-out: Minimal Inhibitory Concentration (MIC)
[1] = tested on: Streptococcus pyogenes A 77; experiment: as above; type: cell-based; conditions: read-out: Minimal Inhibitory Concentration (MIC)
Excerpt: as §1
2. Streptococcus pyogenes A 77

Klebsiella oxytoca 1082E = experiment: as above; conditions: 18 h, read-out: Minimal Inhibitory Concentration (MIC)
gyrase of E. coli = gyrase of E. coli (Escherichia coli, UniProt P0AES4+P0AES6); experiment: Inhibition of gyrase enzyme activity; type: biochemical; set-up: unit not given here; conditions: concentration to inhibit the enzyme activity of gyrase of E. coli
Excerpt: (§2) Test 2. Selectivity Index

[2] = tested on: Staphylococcus aureus SG 511; experiment: Antibacterial activity in vitro (MIC, two-fold agar dilution); type: cell-based; conditions: SG511, Muller Hinton agar, 10^7 CFU/ml, 37° C., 18 hours, read-out: Minimal Inhibitory Concentration (MIC)
Excerpt: as §1
4. Staphylococcus aureus SG 511

Salmonella typhimurium = experiment: as above; conditions: Salmonella enterica, 18 h, read-out: Minimal Inhibitory Concentration (MIC)
[3] = tested on: Pseudomonas aeruginosa 9027; experiment: as above; conditions: Pseudomonas aeruginosa, 9027, 18 h, read-out: Minimal Inhibitory Concentration (MIC)
[4] = tested on: Streptococcus pyogenes A 308; experiment: as above; type: cell-based; conditions: read-out: Minimal Inhibitory Concentration (MIC)
Excerpt: as §1
1. Streptococcus pyogenes A 308

[5] = tested on: Staphylococcus aureus 503; experiment: as above; conditions: Staphylococcus aureus, 503, 18 h, read-out: Minimal Inhibitory Concentration (MIC)
[6] = tested on: Streptococcus faecium MD 8b; experiment: as above; type: cell-based; conditions: Enterococcus faecium, MD8B, read-out: Minimal Inhibitory Concentration (MIC)
Excerpt: as §1
3. Streptococcus faecium MD 8b

[7] = tested on: Klebsiella aerogenes 1552E; experiment: as above; conditions: 18 h, read-out: Minimal Inhibitory Concentration (MIC)
Escherichia coli TEM = experiment: microbe, parasite or virus in culture; conditions: 18 h, read-out: Minimal Inhibitory Concentration (MIC)
[8] = tested on: Pseudomonas aeruginosa 1771; experiment: Antibacterial activity in vitro (MIC, two-fold agar dilution); type: cell-based; conditions: Muller Hinton agar, 10^7 CFU/ml, 37° C., 18 hours, read-out: Minimal Inhibitory Concentration (MIC)
Excerpt: as §1
14. Pseudomonas aeruginosa 1771

[9] = tested on: Staphylococcus aureus 285; experiment: as above; conditions: Staphylococcus aureus, 285, 18 h, read-out: Minimal Inhibitory Concentration (MIC)
Escherichia coli 1507E = experiment: as above; conditions: 18 h, read-out: Minimal Inhibitory Concentration (MIC)
[10] = tested on: Pseudomonas aeruginosa 1592E; experiment: as above; type: cell-based; conditions: Muller Hinton agar, 10^7 CFU/ml, 37° C., 18 hours, read-out: Minimal Inhibitory Concentration (MIC)
Excerpt: as §1
13. Pseudomonas aeruginosa 1592 E

[11] = tested on: calf thymus topoisomerase II; experiment: Inhibition of topoisomerase II enzyme activity; type: biochemical; set-up: unit not given here; conditions: concentration to inhibit the enzyme activity of topoisomerase II (calf thymus)
Excerpt: as §2

Enterobacter cloacae P99 = experiment: microbe, parasite or virus in culture; conditions: P99, 18 h, read-out: Minimal Inhibitory Concentration (MIC)
Excerpt: as §1
19. Enterobacter cloacae P 99

[12] = tested on: Enterobacter cloacae 1321E; experiment: microbe, parasite or virus in culture; conditions: 18 h, read-out: Minimal Inhibitory Concentration (MIC)
Excerpt: as §1

[13] = tested on: gyrase of E. coli and calf thymus topoisomerase II; conditions: calculated by equation 1 from IC100, Topo II and IC100, Gyrase
Method: as §2
Selectivity indexes of the compounds of the present invention and control compounds were measured using gyrase purified from of E. coli and calf thymus topoisomerase II obtained from Topogen. Co.
The selectivity index (S.I.) was calculated by the equation 1. [formula]
wherein, IC100, Topo II is the concentration of a compound to inhibit the enzyme activity of topoisomerase II and IC100, Gyrase is the concentration of a compound to inhibit the enzyme activity of gyrase of E. coli.

[14] = Streptococcus pyogenes, A77, 18 h
[15] = Streptococcus pyogenes, A308, 18 h

Chain of gyrase of E. coli (P0AES4 whole entry, one chain of several): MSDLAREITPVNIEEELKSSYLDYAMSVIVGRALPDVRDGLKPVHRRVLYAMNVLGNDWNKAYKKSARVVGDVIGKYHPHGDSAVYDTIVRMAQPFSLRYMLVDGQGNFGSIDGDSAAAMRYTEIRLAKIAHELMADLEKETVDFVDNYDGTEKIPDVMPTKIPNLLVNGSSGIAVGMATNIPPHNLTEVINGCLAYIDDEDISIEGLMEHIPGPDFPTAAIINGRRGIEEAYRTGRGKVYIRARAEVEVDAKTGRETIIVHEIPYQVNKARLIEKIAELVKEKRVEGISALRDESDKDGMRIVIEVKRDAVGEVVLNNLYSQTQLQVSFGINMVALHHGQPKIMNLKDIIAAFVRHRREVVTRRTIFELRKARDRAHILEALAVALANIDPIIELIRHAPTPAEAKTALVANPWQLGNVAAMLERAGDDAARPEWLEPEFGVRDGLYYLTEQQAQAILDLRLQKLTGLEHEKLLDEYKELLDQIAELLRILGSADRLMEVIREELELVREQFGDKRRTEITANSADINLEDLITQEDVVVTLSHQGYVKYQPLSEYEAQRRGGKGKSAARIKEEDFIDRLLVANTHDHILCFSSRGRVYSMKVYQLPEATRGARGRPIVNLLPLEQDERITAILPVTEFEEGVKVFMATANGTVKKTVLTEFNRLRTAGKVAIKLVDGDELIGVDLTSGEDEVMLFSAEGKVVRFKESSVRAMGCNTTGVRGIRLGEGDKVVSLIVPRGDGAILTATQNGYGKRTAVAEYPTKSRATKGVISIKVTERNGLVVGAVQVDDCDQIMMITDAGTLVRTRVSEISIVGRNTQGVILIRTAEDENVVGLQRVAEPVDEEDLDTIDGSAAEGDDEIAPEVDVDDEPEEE

SMILES | MIC (Escherichia coli DC 0; Escherichia coli, DC0, 18 h) | MIC (Escherichia coli DC 2) | MIC (Escherichia coli 078) | MIC [1, 14] | MIC (Klebsiella oxytoca 1082E) | IC100, Gyrase (gyrase of E. coli) | MIC [2] | MIC (Salmonella typhimurium) | MIC [3] | MIC [4, 15] | MIC [5] | MIC ([6]; 18 h) | MIC [7] | MIC (Escherichia coli TEM) | MIC [8] | MIC [9] | MIC (Escherichia coli 1507E) | MIC [10] | IC100, Topo II [11] | MIC (Enterobacter cloacae P99) | also measured
O=C(O)c1cn(C2CC2)c2cc(N3CCNCC3)c(F)cc2c1=O [Ciprofloxacin, 1-cyclopropyl-6-fluoro-7-(piperazin-1-yl)-4-oxoquinoline-3-carboxylic acid, reference compound] | 0.195 µg/mL (≈ 0.589 µM) | 0.049 µg/mL (≈ 0.148 µM) | 0.004 µg/mL (≈ 0.0121 µM) | 0.781 µg/mL (≈ 2.36 µM) | < 0.002 µg/mL | 0.5 | 0.195 µg/mL (≈ 0.589 µM) | 0.007 µg/mL (≈ 0.0211 µM) | 0.195 µg/mL (≈ 0.589 µM) | 3.12 µg/mL (≈ 9.43 µM) | 0.391 µg/mL (≈ 1.18 µM) | 0.391 µg/mL (≈ 1.18 µM) | 0.013 µg/mL (≈ 0.0392 µM) | 0.007 µg/mL (≈ 0.0211 µM) | 0.195 µg/mL (≈ 0.589 µM) | 0.781 µg/mL (≈ 2.36 µM) | 0.007 µg/mL (≈ 0.0211 µM) | 0.195 µg/mL (≈ 0.589 µM) | 500 |  | 
Cc1c(N2CC3=CCCN[C@H]3C2)c(F)cn2c(=O)c(C(=O)O)cc(C3CC3)c12 [Example 1, 8-{[(R)-2,8-diazabicyclo[4.3. 0]non-5-en]-8-yl}-1-cyclopropyl-7-fluoro-9-methyl-4-oxo-4H-quinolizine-3-carboxylic acid] |  | 0.013 µg/mL (≈ 0.0339 µM) | < 0.002 µg/mL |  | < 0.002 µg/mL | 0.5 | 0.007 µg/mL (≈ 0.0183 µM) | 0.004 µg/mL (≈ 0.0104 µM) | 0.195 µg/mL (≈ 0.509 µM) |  | 0.007 µg/mL (≈ 0.0183 µM) |  | 0.013 µg/mL (≈ 0.0339 µM) | 0.007 µg/mL (≈ 0.0183 µM) | 0.098 µg/mL (≈ 0.256 µM) | 0.013 µg/mL (≈ 0.0339 µM) | 0.007 µg/mL (≈ 0.0183 µM) | 0.098 µg/mL (≈ 0.256 µM) | 1,000 | 0.004 µg/mL (≈ 0.0104 µM) | MIC (Escherichia coli DC 0; DC0, Escherichia coli DC 0, Muller Hinton agar, 10^7 CFU/ml, 37° C., 18 hours): 0.049 µg/mL (≈ 0.128 µM); MIC ([1]; A77, Streptococcus pyogenes A 77, Muller Hinton agar, 10^7 CFU/ml, 37° C., 18 hours): 0.025 µg/mL (≈ 0.0652 µM); MIC [12]: < 0.002 µg/mL; MIC ([4]; A308, Streptococcus pyogenes A 308, Muller Hinton agar, 10^7 CFU/ml, 37° C., 18 hours): 0.049 µg/mL (≈ 0.128 µM); MIC ([6]; Streptococcus faecium MD 8b, Muller Hinton agar, 10^7 CFU/ml, 37° C., 18 hours): 0.025 µg/mL (≈ 0.0652 µM); S.I. (Selectivity Index) [13]: 2,000
Cc1c(N2CC(CN)C(OCc3cccnc3)C2)c(F)cn2c(=O)c(C(=O)O)cc(C3CC3)c12 (stereo not shown) [Example 16, 8-{[3-(3-pyridylmethyl)oxy-4-aminomethylpyrrolidine]-1-yl}-1-cyclopropyl-7-fluoro-9-methyl-4-oxo-4H-quinolizine-3-carboxylic acid] | 0.098 µg/mL (≈ 0.21 µM) | 0.013 µg/mL (≈ 0.0279 µM) | < 0.002 µg/mL | 0.049 µg/mL (≈ 0.105 µM) | < 0.002 µg/mL | 0.5 | 0.013 µg/mL (≈ 0.0279 µM) | 0.004 µg/mL (≈ 0.00857 µM) | 0.195 µg/mL (≈ 0.418 µM) | 0.098 µg/mL (≈ 0.21 µM) | 0.013 µg/mL (≈ 0.0279 µM) | 0.049 µg/mL (≈ 0.105 µM) | 0.013 µg/mL (≈ 0.0279 µM) | 0.007 µg/mL (≈ 0.015 µM) | 0.195 µg/mL (≈ 0.418 µM) | 0.013 µg/mL (≈ 0.0279 µM) | 0.013 µg/mL (≈ 0.0279 µM) | 0.195 µg/mL (≈ 0.418 µM) | 1,000 | 0.004 µg/mL (≈ 0.00857 µM) | MIC [12]: < 0.002 µg/mL; S.I. (Selectivity Index) [13]: 2,000
CC1CN(c2c(F)c(N)c3c(=O)c(C(=O)O)cn(C4CC4)c3c2F)CC(C)N1 (stereo not shown) [Sparfloxacin, 1-cyclopropyl-5-amino-6,8-difluoro-7-(3,5-dimethylpiperazin-1-yl)-4-oxoquinoline-3-carboxylic acid, reference compound] | 0.195 µg/mL (≈ 0.497 µM) | 0.025 µg/mL (≈ 0.0637 µM) | 0.004 µg/mL (≈ 0.0102 µM) | 0.195 µg/mL (≈ 0.497 µM) | < 0.002 µg/mL | 1.0 | 0.098 µg/mL (≈ 0.25 µM) | 0.007 µg/mL (≈ 0.0178 µM) | 0.781 µg/mL (≈ 1.99 µM) | 0.391 µg/mL (≈ 0.996 µM) | 0.049 µg/mL (≈ 0.125 µM) | 0.391 µg/mL (≈ 0.996 µM) | 0.025 µg/mL (≈ 0.0637 µM) | 0.013 µg/mL (≈ 0.0331 µM) | 0.781 µg/mL (≈ 1.99 µM) | 0.049 µg/mL (≈ 0.125 µM) | 0.025 µg/mL (≈ 0.0637 µM) | 0.781 µg/mL (≈ 1.99 µM) | 500 | 0.007 µg/mL (≈ 0.0178 µM) | MIC [12]: 0.004 µg/mL (≈ 0.0102 µM); S.I. (Selectivity Index) [13]: 500
